Measured values from ChEMBL document CHEMBL1201862, “PubChem BioAssay data set” (2004).
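Values below derive from 48-hour exposures of cells grown in 96-well plates, with endpoints linearly interpolated between the two concentrations bracketing the appropriate inhibition level. GI50: concentration for 50% inhibition of growth.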 Calls of active or inactive are those of the source. No stated cut-off is given here; in the data, active = GI50 up to about 1.1 µM and inactive = higher.

Tests used:
Test in all cases: NCI tumour cell line growth inhibition, 48 h
COLO 205 = system: COLO 205
SK-MEL-28 = system: SK-MEL-28
KM12 = system: KM12
SN12C = system: SN12C
HCC 2998 = system: HCC 2998
LOX IMVI = system: LOX IMVI
MOLT-4 = system: MOLT-4
SF-268 = system: SF-268
SK-MEL-5 = system: SK-MEL-5
HT-29 = system: HT-29
NCI-H522 = system: NCI-H522
SNB-75 = system: SNB-75
HOP-62 = system: HOP-62
CAKI-1 = system: CAKI-1
U-251 = system: U-251
KM-20L2 = system: KM-20L2
NCI-H460 = system: NCI-H460

Measured: GI50

CCC12C=C(C(=O)OC)N3c4ccccc4C4CCN(CCC1)C2C43 (stereo not drawn)
inactive: COLO 205 31.9 µM | SK-MEL-28 95.7 µM | KM12 48.3 µM | SN12C 83.8 µM | HCC 2998 29.7 µM | LOX IMVI 59.4 µM | MOLT-4 66.8 µM | SF-268 > 100 µM | SK-MEL-5 72.1 µM | HT-29 32.1 µM | NCI-H522 75.7 µM | SNB-75 30.2 µM | HOP-62 38.9 µM | CAKI-1 35.6 µM | U-251 82.4 µM | KM-20L2 19.1 µM

C=C1CCC(OC(C)=O)C2(C)C(OC(C)=O)CC3OC3(C)C2C(OC(C)=O)C2C(C)C(=O)OC2C1Cl (stereo not drawn)
inactive: COLO 205 > 100 µM | SK-MEL-28 > 100 µM | KM12 > 100 µM | SN12C > 100 µM | HCC 2998 > 100 µM | LOX IMVI > 100 µM | MOLT-4 > 100 µM | SF-268 > 100 µM | SK-MEL-5 > 100 µM | HT-29 > 100 µM | SNB-75 > 100 µM | NCI-H460 > 100 µM | HOP-62 > 100 µM | CAKI-1 > 100 µM | U-251 > 100 µM | KM-20L2 > 100 µM

CCc1ccccc1N1C(=O)C(=O)C(c2nc3ccccc3s2)C(=O)C1=O
inactive: SK-MEL-28 > 100 µM | KM12 > 100 µM | SN12C 63.4 µM | HCC 2998 > 100 µM | LOX IMVI > 100 µM | MOLT-4 42.2 µM | SF-268 > 100 µM | SK-MEL-5 92 µM | HT-29 > 100 µM | NCI-H522 > 100 µM | NCI-H460 > 100 µM | HOP-62 > 100 µM | CAKI-1 > 100 µM | U-251 36.1 µM | KM-20L2 > 100 µM

C[n+]1c2ccccc2c(CNC(CS)C(=O)O)c2ccccc21 (stereo not drawn)
inactive: COLO 205 19.2 µM | KM12 19.7 µM | SN12C 30.5 µM | HCC 2998 31.5 µM | MOLT-4 12.4 µM | SF-268 20.4 µM | SK-MEL-5 > 10 µM | HT-29 29.3 µM | NCI-H522 17.8 µM | SNB-75 21.7 µM | NCI-H460 21.8 µM | HOP-62 15.5 µM | CAKI-1 29.6 µM | U-251 24.2 µM | KM-20L2 20.4 µM

C#CC1(O)CCC2C3CCc4cc(Oc5nc(F)nc(-c6c7ccccc7c7n6CCS7)n5)ccc4C3CC[C@@]21C (stereo partly drawn)
inactive: COLO 205 29 µM | SK-MEL-28 21.1 µM | KM12 15.1 µM | HCC 2998 19.2 µM | MOLT-4 26.9 µM | SF-268 29 µM | SK-MEL-5 17.4 µM | HT-29 27.9 µM | NCI-H522 4.37 µM | SNB-75 12.2 µM | NCI-H460 35.4 µM | HOP-62 17.9 µM | CAKI-1 28.8 µM | U-251 17.5 µM | KM-20L2 29.2 µM

N#CC(C#N)=c1ccc(=C2N3CCCC3CN2C23CC4CC(CC(C4)C2)C3)cc1 (stereo not drawn)
inactive: COLO 205 > 100 µM | SK-MEL-28 69.3 µM | KM12 > 100 µM | SN12C > 100 µM | HCC 2998 > 100 µM | LOX IMVI > 100 µM | MOLT-4 > 100 µM | SF-268 55.8 µM | SK-MEL-5 > 100 µM | HT-29 > 100 µM | NCI-H522 > 100 µM | SNB-75 26.4 µM | NCI-H460 > 100 µM | HOP-62 24.4 µM | U-251 > 100 µM | KM-20L2 > 100 µM

NC(=O)C(=O)Cc1nc2ccccc2s1
inactive: COLO 205 > 100 µM | SK-MEL-28 > 100 µM | KM12 > 100 µM | SN12C > 100 µM | HCC 2998 > 100 µM | LOX IMVI > 100 µM | MOLT-4 > 100 µM | SF-268 > 100 µM | HT-29 > 100 µM | NCI-H522 > 100 µM | SNB-75 68.2 µM | NCI-H460 > 100 µM | HOP-62 > 100 µM | U-251 > 100 µM | KM-20L2 > 100 µM

CN(C)C(=N)c1ccccc1
inactive: COLO 205 > 100 µM | SK-MEL-28 > 100 µM | KM12 > 100 µM | SN12C > 100 µM | HCC 2998 > 100 µM | LOX IMVI > 100 µM | HT-29 > 100 µM | NCI-H522 > 100 µM | SNB-75 > 100 µM | NCI-H460 > 100 µM | HOP-62 > 100 µM | CAKI-1 > 100 µM | U-251 > 100 µM | KM-20L2 > 100 µM

COC(=O)CCC(NC(=S)N/N=C(\C)c1cnccn1)C(=O)OC (stereo not drawn)
inactive: COLO 205 34.4 µM | SK-MEL-28 55.8 µM | KM12 70.6 µM | SN12C 86.7 µM | HCC 2998 56.5 µM | LOX IMVI 31.6 µM | MOLT-4 15.7 µM | SF-268 35.4 µM | SK-MEL-5 34.2 µM | HT-29 93.3 µM | NCI-H522 27 µM | SNB-75 85.3 µM | NCI-H460 53 µM | HOP-62 36.2 µM | U-251 52.4 µM | KM-20L2 38.6 µM
